Measurements as given in the NIST ThermoML archive (doi:10.1021/je5005752).

Assay: xn = mol fraction of the nth substance listed
Settings: 101 kPa, Liquid; for viscosity: Falling or rolling sphere viscometry; for mass density: Vibrating tube method

CCCC(=O)OCC [ethyl butanoate] + CCCO
Settings | mass density, 308.15 K [kg/m3] | mass density, 313.15 K [kg/m3] | mass density, 318.15 K [kg/m3] | mass density, 323.15 K [kg/m3] | viscosity, 308.15 K [mPa·s] | viscosity, 313.15 K [mPa·s] | viscosity, 318.15 K [mPa·s] | viscosity, 323.15 K [mPa·s]
x1 = 0.1001 | 802.83 | 798.47 | 794.06 | 789.62 | 1.179 | 1.073 | 0.9782 | 0.9018
x1 = 0.2 | 812.51 | 807.94 | 803.33 | 798.67 | 0.959 | 0.8796 | 0.8084 | 0.7475
x1 = 0.2999 | 821.1 | 816.35 | 811.58 | 806.74 | 0.8239 | 0.7599 | 0.7044 | 0.6572
x1 = 0.3994 | 828.82 | 823.93 | 819 | 814.03 | 0.7391 | 0.6873 | 0.6398 | 0.601
x1 = 0.4999 | 835.83 | 830.81 | 825.77 | 820.68 | 0.6786 | 0.6338 | 0.5926 | 0.5568
x1 = 0.6002 | 842.27 | 837.16 | 832 | 826.83 | 0.638 | 0.598 | 0.5612 | 0.5301
x1 = 0.6998 | 848.03 | 842.84 | 837.62 | 832.37 | 0.6089 | 0.5722 | 0.5398 | 0.5106
x1 = 0.8001 | 853.36 | 848.11 | 842.82 | 837.52 | 0.5882 | 0.5543 | 0.5227 | 0.4955
x1 = 0.9001 | 858.26 | 852.96 | 847.64 | 842.3 | 0.5756 | 0.544 | 0.5138 | 0.488
x1 = 1 | 863.02 | 857.7 | 852.36 | 847 | 0.5736 | 0.5424 | 0.5132 | 0.487
